From patent US20250064717A1, “MANUFACTURE OF COSMETIC CAROTENOID COMPOSITIONS” (Unibar Corporation, priority 2022, published 2025)
Converted amounts (≈) assume the structure as drawn.

Assays:
[1] = tested on: Candida albicans (ATCC-10231); experiment: Antifungal culture microdilution MIC assay; assay type: cell-based; settings: ATCC10231, 50% reduction of fungal growth, 48-72 hours
Source text: (§1) The anti-fungal activity of CAP-50CR and CAP-1.5SE against Malassezia furfur and Candida albicans are compared with the anti-fungal drug ketoconazole by the minimum inhibitory concentration (“MIC”) method.
(§2) The inhibitory effect assay of CAP-50CR and CAP-1.5SE against Malassezia furfur and Candida albicans may be performed as per a culture microdilution reference method. Ketoconazole, an anti-fungal drug, may be used as the standard. Freeze-dried Candida albicans (ATCC-10231) and Malassezia furfur (ATCC-14521) strains may be used as well. A loopful culture of Malassezia furfur and Candida albicans may be streaked on SDA (Sabouraud Dextrose Agar), and incubated at 35±2° C. and 25±2° C. for 48-72 hours, respectively. Finally, cells may be suspended in a RPMI 1640 medium to obtain a final concentration of 1×10^6 CFU/mL. For the evaluation of inhibitory activity, the effect of CAP-50CR and CAP-1.5SE may be examined against strains of Malassezia furfur and Candida albicans cultured in 96-well microplates at different concentrations of 35±2° C. and 25±2° C., respectively, for 48-72 hours.
(§3) Sterility and growth control may also be used. Yeast growth may be determined in an Enzyme-Linked ImmunoSorbent Assay Microplate Reader at 530 nm. […]

[2] = tested on: Malassezia furfur (ATCC-14521); experiment: Antifungal culture microdilution MIC assay; assay type: cell-based; settings: ATCC14521, 50% reduction of fungal growth, 48-72 hours
Source text: as §1, §2, §3

Compound: CC(=O)N1CCN(c2ccc(OCC3COC(Cn4ccnc4)(c4ccc(Cl)cc4Cl)O3)cc2)CC1 (centres unmarked) [Ketoconazole]
- MIC50 [1]: 0.48 µg/mL (≈ 0.903 µM)
- MIC50 [2]: 0.48 µg/mL (≈ 0.903 µM)
